{"source": "patent US9872903B2", "about": "“Targeting thymidine kinase photosensitizer and pharmaceutical composition and use for cancer treatment thereof” (ZHEJIANG HISUN PHARMACEUTICAL CO., LTD., priority 2012, dated 2018)", "key": {"tumor cells of PC3 line": {"test_system": "tumor cells of PC3 line", "experiment": "in vivo therapeutic effect of PDT in tumor-bearing Scid mice", "settings": "665 nm; for curative ratio: photosensitizer 0.5 μmol/kg i.v., light 24 h later, 135 J/cm^2, 75 mW/cm^2, 60 days, 10 mice; for mice with no tumor relapse observed after 60 days: photosensitizer 0.5 μmol/kg, 135 J/cm^2, 75 mW/cm^2", "method": "Procedure: subcutaneous injection of 3×10^5 tumor cells were performed to the mice, and the cells were allowed to grow so that the diameter can reach 4-5 mm. The hairs at the inoculation site were shaved one day before laser irradiation, and the photosensitizer at various concentrations was intravenously injected to the mice. The mice were not anesthetized, and were limited in a plastic circle 24 h after photosensitizer injection (such as Compound 1 or 3). Subsequently, light treatment was performed after the emission wavelength was tuned to the activation wavelength of the drug using an argon-pumped dye laser monochromes, wherein paclitaxel was additionally injected 8 h before exposure in the combination therapy group. The parameters involved in the therapy included a diameter of 1 cm^2, fluence rate of 75 mW/cm^2 and total light dosage of 135 J/cm^2.\nIf tumor growth was observed, two perpendicular values L and W (perpendicular to L) were used for the detection, and the volume of tumor can be calculated according to the equation V=(L×W^2)/2. If no evidence for regeneration can be observed 60 days after PDT therapy, the mice can be considered as cured. There were 10 mice in each group at each concentration.\nThe dosages of HPPH and HPPH-thymidine conjugate used in this experiment were both 0.5 μmol/kg. The single dosage of paclitaxel for additional injection 8 h before exposure was 35 mg/kg. The irradiation parameters included 665 nm, 135 J/cm^2, and 75 mW/cm^2. The curative ratio can be simply calculated based on the equation: number of mice without tumor regeneration×100%/total number of mice. For example, 60 days after administration of Compound 3, i.e., HPPH-thymidine conjugate of the present invention, there were 5 mice without tumor regeneration, and there were totally 10 mice in each group. Accordingly, the curative ratio is 5×100%/10, i.e., 50%."}, "PC3 cell line [1]": {"test_system": "PC3 cell line", "experiment": "in vitro light-induced cytotoxicity test (PDT, MTT assay)", "assay_type": "cell-based, human", "settings": "for survival rate: Pharmaceutical 3 0.003 μM", "method": "In the present invention, the in vitro therapeutic effect of PDT was compared among HPPH, HPPH-thymidine conjugate and HPPH-thymidine conjugate in combination with chemotherapeutic agent paclitaxel in an in vitro light-induced cytotoxicity test.\nProcedure: in this Example, a highly metastatic and […] prostatic cancer cell, PC3 cell line, was selected. The PC3 cells were cultured in RPMI 1640 medium supplemented with 10% fetal bovine serum, L-glutamine, penicillin, and streptomycin at 37° C., 5% CO2 and 95% air, and 100% humidity. Subsequently, the PC3 cells were inoculated in the complete medium in a 96-well plate at the density of 5×10^3 cell/well with 6 multiple wells arranged. After cultured at 37° C. overnight, the cells were treated by the photosensitizer or paclitaxel at gradient concentrations in darkness for 24 h. For the treatment using HPPH-thymidine conjugate in combination with paclitaxel, paclitaxel was additionally injected 8 h before exposure, and the concentrations of paclitaxel and the photosensitizer were the same as above.\nAfter the pharmaceutical-containing medium was replaced by fresh medium, the cells were irradiated by light at 665 nm and with a dosage rate of 3.2 mW/cm^2 using an argon-pumped dye laser.\nAfter treated by PDT or paclitaxel alone, the cells were cultured for 48 h at 37° C. in darkness. The phototoxicity was determined by MTT assay (by comparison of the survival rate between the test cells and the untreated cells). The dosage-response survival curve was also plotted. In the Figures, the value was the average of 3 independent experiments, and the error bar stood for standard deviation. In each treatment, the concentration of Compound 3, i.e., HPPH-thymidine conjugate, was 0.06 μM, and the concentration of Compound 1, i.e., HPPH, was 0.06 μM, and the concentration of paclitaxel was 2 nM."}, "[2]": {"test_system": "PC-3 (human prostatic cancer) cell line", "experiment": "in vitro light cytotoxicity test of PDT at 675 nm or 703 nm (MTT)", "assay_type": "cell-based", "method": "The in vitro therapeutic effect of PDT was compared among the following compounds in PC-3 (human prostatic cancer) cell line by in vitro light cytotoxicity test. The procedure was the same as that in Example 4. Briefly, PC3 cells were coated onto the wells of a 96-well plate and adhered for 6-24 h. Subsequently, the cells were treated by the PDT photosensitizer at various concentrations for 24 h, followed by irradiation at 675 nm (dose rate of 3.2 mW/cm^2) or 703 nm (dose rate of 3.2 mW/cm^2) using various high dosages. After 48 h, the cell growth was evaluated by colorimetry, wherein the insoluble formazan product generated in MTT method was dissolved and its concentration was detected at 570 nm through optical density.\nThe results of the treatment at 675 nm were shown in FIG. 4, wherein PLH-14 was Compound 5 in Example 2, and PLH-13 was Compound 6, i.e., thymidine conjugate of Compound 5, in Example 2. The concentration of both PLH-13 and PLH-14 was 0.1 μM. The results of the treatment at 703 nm were shown in FIG. 5, wherein 277-COOH was Compound 7 in Example 3, and PLH-12 was Compound 8, i.e., thymidine conjugate of Compound 7, in Example 3. The concentration of both 277-COOH and PLH-12 was 0.05 μM. As shown in FIG. 4 and FIG. 5, the in vitro therapeutic effect of PDT using the photosensitizer was enhanced by conjugation of Compound 5, […] Compound 7 with thymidine."}, "PC3 cell line [3]": {"test_system": "PC3 cell line", "experiment": "morphology change by DAPI staining", "assay_type": "cell-based, human", "settings": "paclitaxel pretreatment"}}}
{"compound": "2-((1′-n-hexyloxy)ethyl)-2-devinyl-pyropheophorbide-α [Compound 1, reference compound]", "values": [{"measurement": "curative ratio", "setting": "tumor cells of PC3 line", "value": 30, "unit": "%"}, {"measurement": "mice with no tumor relapse observed after 60 days", "setting": "tumor cells of PC3 line", "value": "3/10"}]}
{"compound": "CCCCCCOC(C)c1c(C)c2cc3nc(c4c5[nH]c(cc6nc(cc1[nH]2)C(C)=C6CC)c(C)c5C(=O)C4)C(CCC(=O)OCC1OC(n2cc(C)c(=O)[nH]c2=O)CC1O)C3C", "note": "(centres unmarked) [Compound 3, 17^3-thymidylyl-3-((1′-n-hexyloxy)ethyl)-3-devinyl-pyropheophorbide]", "values": [{"measurement": "light dosage of IC50", "setting": "PC3 cell line [1]; PDT with Compound 3 0.06 μM alone, 665 nm, 3.2 mW/cm^2, MTT after 48 h", "value": 0.13, "unit": "J/cm^2"}, {"measurement": "survival rate", "setting": "PC3 cell line [1]; light dosage 0.25 J/cm^2, before action of paclitaxel", "value": 100, "unit": "%"}, {"measurement": "survival rate", "setting": "PC3 cell line [1]; light dosage 0.25 J/cm^2, under the action of paclitaxel (0.000704)", "value": 80, "unit": "%"}, {"measurement": "in vitro therapeutic effect of PDT (cell survival vs light dosage, FIG. 3)", "setting": "PC3 cell line [1]; photosensitizer 0.06 μM, paclitaxel 2 nM, 665 nm", "value": "higher than that using HPPH"}, {"measurement": "curative ratio", "setting": "tumor cells of PC3 line", "value": 50, "unit": "%"}, {"measurement": "mice with no tumor relapse observed after 60 days", "setting": "tumor cells of PC3 line", "value": "5/10"}]}
{"compound": "CCCCCCOC(C)c1c(C)c2[nH]c1cc1nc(cc3[nH]c4c(c5nc(c2-c2ccc(C(=O)OCC6OC(n7cc(C)c(=O)[nH]c7=O)CC6O)cc2)C(C)C5CCC(=O)OCC2OC(n5cc(C)c(=O)[nH]c5=O)CC2O)CC(=O)c4c3C)C(CC)=C1C", "note": "(centres unmarked) [Compound 6, 17^3-thymidylyl-20-(4-thymidylyloxycarbonyl)phenyl-3-((1′-n-hexyloxy)ethyl)-3-devinyl-pyro pheophorbide]", "values": [{"measurement": "in vitro therapeutic effect of PDT (percentage of control growth, FIG. 4)", "setting": "[2]; 675 nm, 3.2 mW/cm^2, 0.1 μM, compared with unconjugated PLH-14 (Compound 5)", "value": "enhanced"}]}
{"compound": "CCCCOC(C)c1c(C)c2cc3nc(c4c5[nH]c(cc6nc(cc1[nH]2)C(C)=C6CC)c(C)c5C(=O)N(CCCC)C4=O)C(CCC(=O)OCC1OC(n2cc(C)c(=O)[nH]c2=O)CC1O)C3C", "note": "(centres unmarked) [Compound 8]", "values": [{"measurement": "in vitro therapeutic effect of PDT (relative growth rate, FIG. 5)", "setting": "[2]; 703 nm, 3.2 mW/cm^2, 0.05 μM, compared with unconjugated 277-COOH (Compound 7)", "value": "enhanced"}]}
{"compound": "CC(=O)O[C@H]1C(=O)[C@@]2(C)[C@H]([C@H](OC(=O)c3ccccc3)[C@]3(O)C[C@H](OC(=O)[C@H](O)[C@@H](NC(=O)c4ccccc4)c4ccccc4)C(C)=C1C3(C)C)[C@]1(OC(C)=O)CO[C@@H]1C[C@@H]2O", "note": "[paclitaxel]", "values": [{"measurement": "mechanism of cell death", "setting": "PC3 cell line [3]", "value": "apoptosis mechanism"}]}
